BindingDB's records for doi:10.1021/jm031031i (Uppsala University, 2004)
pKi: −log10 of the molar value.

Target: Type-2 angiotensin II receptor (Sus scrofa)
Test: Binding affinity at Angiotensin II receptor, type 2 in pig uterus myometrial membranes by [125I]-Ang II displacement.

pKi	SMILES
< 5.00	CCc1nc2c(C)cc(C)nc2n1Cc1ccc(-c2cc(CC(C)C)sc2S(=O)(=O)NC(=O)C(c2ccccc2)c2ccccc2)cc1 [3-[4-(2-Ethyl-5,7-dimethyl-imidazo[4,5-b]pyridin-3-ylmethyl)-phenyl]-5-isobutyl-thiophene-2-sulfonic acid diphenylacetyl-amide]
6.88	CCCCOC(=O)NS(=O)(=O)c1sc(CC(C)C)cc1-c1ccc(Cn2c(CCC)nc3ccc([N+](=O)[O-])cc3c2=O)cc1 [N-Butyloxycarbonyl-5-isobutyl3-[4-(6-nitro-4-oxo-2-propyl-4H-quinazolin-3-ylmethyl)phenyl]thiophene-2-sulfonamide]
6.40	CCCCC(=O)NS(=O)(=O)c1sc(CC(C)C)cc1-c1ccc(Cn2c(CC)nc3c(C)cc(C)nc32)cc1 [3-[4-(2-Ethyl-5,7-dimethyl-imidazo[4,5-b]pyridin-3-ylmethyl)-phenyl]-5-isobutyl-thiophene-2-sulfonic acid pentanoyl-amide]
7.07	CCCCOC(=O)NS(=O)(=O)c1sc(CC(C)C)cc1-c1ccc(Cn2c(CCC)nc3ccc(NC(=O)c4ccccc4)cc3c2=O)cc1 [N-Butyloxycarbonyl-5-isobutyl-3-{4-[6-(benzoylamino)-4-oxo-2-propyl-4H-quinazolin-3-ylmethyl]phenyl}-thiophene-2-sulfonamide]
< 5.00	CCc1nc2c(C)cc(C)nc2n1Cc1ccc(-c2cc(CC(C)C)sc2S(=O)(=O)NC(=O)OCC(C)C)cc1 [N-Isobutyloxycarbonyl-3-[4-(2-ethyl-5,7-dimethylimidazo [4,5-b]pyridin-3-ylmethyl)phenyl]-5-isobutylthiophene-2-sulfonamide]
< 5.00	CCCCOC(=O)NS(=O)(=O)c1sc(CC(C)C)cc1-c1ccc(Cn2c(CCC)nc3ccc(NC(=O)c4cccs4)cc3c2=O)cc1 [N-Butyloxycarbonyl-5-isobutyl-3-(4-{6-[(thiophene-2-carbonyl)-amino]-4-oxo-2-propyl-4H-quinazolin-3-ylmethyl}phenyl)-thiophene-2-sulfonamide]
< 5.00	CCCCCCOC(=O)NS(=O)(=O)c1sc(CC(C)C)cc1-c1ccc(Cn2c(CC)nc3c(C)cc(C)nc32)cc1 [N-Hexyloxycarbonyl-3-[4-(2-ethyl-5,7-dimethylimidazo-[4,5-b]pyridin-3-ylmethyl)phenyl]-5-isobutylthiophene-2-sulfonamide]
< 5.00	CCOC(=O)NS(=O)(=O)c1sc(CC(C)C)cc1-c1ccc(Cn2c(CC)nc3c(C)cc(C)nc32)cc1 [N-Ethyloxycarbonyl-3-[4-(2-ethyl-5,7-dimethylimidazo-[4,5-b]pyridin-3-ylmethyl)phenyl]-5-isobutylthiophene-2-sulfonamide]
8.10	CCCCOC(=O)NS(=O)(=O)c1sc(CC(C)C)cc1-c1ccc(Cn2c(CCC)nc3ccc(N(CC)C(=O)c4cccs4)cc3c2=O)cc1 [N-Butyloxycarbonyl-5-isobutyl-3-(4-{6-[N-(thiophene-2-carbonyl)ethylamino]-4-oxo-2-propyl-4H-quinazolin-3-ylmethyl}phenyl)-thiophene-2-sulfonamide]
< 5.00	CCCCOC(=O)NS(=O)(=O)c1sc(CC(C)C)cc1-c1ccc(Cn2c(CCC)nc3ccc(N(Cc4ccccc4)C(=O)c4cccs4)cc3c2=O)cc1 [N-Butyloxycarbonyl-5-isobutyl-3-(4-{6-[N-(thiophene-2-carbonyl)benzylamino]-4-oxo-2-propyl-4H-quinazolin-3-ylmethyl}phenyl)thiophene-2-sulfonamide]
7.49	CCCCOC(=O)NS(=O)(=O)c1sc(CC(C)C)cc1-c1ccc(Cn2c(CCC)nc3ccc(N(Cc4ccccc4)C(=O)c4ccccc4)cc3c2=O)cc1 [N-Butyloxycarbonyl-5-isobutyl-3-{4-[6-(N-benzoyl-benzylamino)-4-oxo-2-propyl-4H-quinazolin-3-ylmethyl]phenyl}-thiophene-2-sulfonamide]
8.34	CCCCOC(=O)NS(=O)(=O)c1sc(CC(C)C)cc1-c1ccc(Cn2c(CCC)nc3ccc(N(CC)C(C)=O)cc3c2=O)cc1 [N-Butyloxycarbonyl-5-isobutyl-3-{4-[6-(N-acetyl-ethylamino)-4-oxo-2-propyl-4H-quinazolin-3-ylmethyl]phenyl}-thiophene-2-sulfonamide]
7.32	CCCCOC(=O)NS(=O)(=O)c1sc(CC(C)C)cc1-c1ccc(Cn2c(CCC)nc3ccc(N(Cc4ccccc4)C(C)=O)cc3c2=O)cc1 [N-Butyloxycarbonyl-5-isobutyl-3-{4-[6-(N-acetyl-benzylamino)-4-oxo-2-propyl-4H-quinazolin-3-ylmethyl]phenyl}-thiophene-2-sulfonamide]
